Assay results from ChEMBL document CHEMBL1201862, “PubChem BioAssay data set” (2004).
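In this assay, cells in 96-well plates receive the compound at five concentrations for 48 hours. Endpoints are linearly interpolated between the surrounding concentrations. GI50: concentration for 50% inhibition of growth.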 Calls of active or inactive are those of the source. Rule as the data show it: active = GI50 up to about 1.1 µM and inactive = higher.

What was measured:
Experiment in all cases: NCI-60 cell line screen, 48 h
OVCAR-8 = tested on: OVCAR-8
M14 = tested on: M14
MDA-MB-435 = tested on: MDA-MB-435
RXF 393 = tested on: RXF 393
UACC-257 = tested on: UACC-257
HCC 2998 = tested on: HCC 2998
MCF7 = tested on: MCF7
NCI-H23 = tested on: NCI-H23
CCRF-CEM = tested on: CCRF-CEM
SN12C = tested on: SN12C
HT-29 = tested on: HT-29
TK-10 = tested on: TK-10
NCI-H460 = tested on: NCI-H460
SF-295 = tested on: SF-295
SK-OV-3 = tested on: SK-OV-3
SR = tested on: SR
K562 = tested on: K562
Malme-3M = tested on: Malme-3M
HL-60 = tested on: HL-60
PC-3 = tested on: PC-3

Row | SMILES | GI50 (OVCAR-8) | GI50 (M14) | GI50 (MDA-MB-435) | GI50 (RXF 393) | GI50 (UACC-257) | GI50 (HCC 2998) | GI50 (MCF7) | GI50 (NCI-H23) | GI50 (CCRF-CEM) | GI50 (SN12C) | GI50 (HT-29) | GI50 (TK-10) | GI50 (NCI-H460) | GI50 (SF-295) | GI50 (SK-OV-3) | GI50 (SR) | GI50 (K562) | GI50 (Malme-3M) | GI50 (HL-60) | GI50 (PC-3)
1 | CC(C)(C)[Si](C)(C)OCCC1CC2(S(=O)(=O)C3=CC=C=C=C3)ON1CC2S(=O)(=O)c1ccccc1 (configuration not stated) | > 10 µM (inactive) | > 10 µM (inactive) | > 10 µM (inactive) | > 10 µM (inactive) | > 10 µM (inactive) | > 10 µM (inactive) | > 10 µM (inactive) | > 10 µM (inactive) | 2.56 µM (inactive) | > 10 µM (inactive) | > 10 µM (inactive) | > 10 µM (inactive) | > 10 µM (inactive) | > 10 µM (inactive) | > 100 µM (inactive) |  |  |  |  | 
2 | O=C(O)c1ccccc1CC1Cc2cc3c(cc2C1)CCC3 | > 100 µM (inactive) | > 100 µM (inactive) | > 100 µM (inactive) | 89.1 µM (inactive) | > 100 µM (inactive) | > 100 µM (inactive) | > 100 µM (inactive) | 49.5 µM (inactive) | > 100 µM (inactive) | > 100 µM (inactive) | > 100 µM (inactive) | > 100 µM (inactive) | > 100 µM (inactive) | > 100 µM (inactive) | > 100 µM (inactive) | > 100 µM (inactive) | > 100 µM (inactive) | > 100 µM (inactive) | > 100 µM (inactive) | 
3 | COc1cc(NC(C)CCCN)c2nccc(C)c2c1 (configuration not stated) |  | 18.9 µM (inactive) | 16.7 µM (inactive) |  |  | 19.9 µM (inactive) | 16.2 µM (inactive) | 38 µM (inactive) |  | 31.4 µM (inactive) | 31.9 µM (inactive) | 26.8 µM (inactive) | 22.3 µM (inactive) | 15.3 µM (inactive) | 28.4 µM (inactive) | 19.7 µM (inactive) |  | 20 µM (inactive) | 2.81 µM (inactive) | 
4 | COc1cccc(Cc2cc(=O)c3ccc(C)nc3[nH]2)c1 | > 100 µM (inactive) | > 100 µM (inactive) | > 100 µM (inactive) | > 100 µM (inactive) | > 100 µM (inactive) |  | > 100 µM (inactive) | > 100 µM (inactive) | > 100 µM (inactive) | > 100 µM (inactive) | > 100 µM (inactive) | > 100 µM (inactive) | > 100 µM (inactive) | > 100 µM (inactive) | > 100 µM (inactive) | 35.8 µM (inactive) | 86.7 µM (inactive) | 57.7 µM (inactive) | 55.5 µM (inactive) | 
5 | CCOC(=O)N(c1ccccc1)c1cc(=O)n2ccccc2n1 | > 100 µM (inactive) |  | > 100 µM (inactive) | 38.9 µM (inactive) | > 100 µM (inactive) | > 100 µM (inactive) | > 100 µM (inactive) | > 100 µM (inactive) | > 100 µM (inactive) | > 100 µM (inactive) | > 100 µM (inactive) | > 100 µM (inactive) | > 100 µM (inactive) | > 100 µM (inactive) | > 100 µM (inactive) | > 100 µM (inactive) | > 100 µM (inactive) | > 100 µM (inactive) | > 100 µM (inactive) | 
6 | Cc1ccc2c(=O)c(-c3n[nH]c(=S)s3)c[nH]c2n1 | > 100 µM (inactive) | > 100 µM (inactive) | > 100 µM (inactive) | > 100 µM (inactive) | > 100 µM (inactive) |  | > 100 µM (inactive) | > 100 µM (inactive) | > 100 µM (inactive) | > 100 µM (inactive) | > 100 µM (inactive) | > 100 µM (inactive) | > 100 µM (inactive) | > 100 µM (inactive) |  |  | > 100 µM (inactive) | > 100 µM (inactive) | > 100 µM (inactive) | > 100 µM (inactive)
7 | CC(=O)C1=C(N=[N+]=[N-])c2cccc3cccc(c23)C1=O | 23.6 µM (inactive) | 12.7 µM (inactive) | 20.6 µM (inactive) | 11.4 µM (inactive) | 17.9 µM (inactive) | 17.6 µM (inactive) | 10.6 µM (inactive) | 20 µM (inactive) | 5.73 µM (inactive) | 16.1 µM (inactive) | 17.6 µM (inactive) | 15.3 µM (inactive) | 21 µM (inactive) | 22.5 µM (inactive) | 24 µM (inactive) |  | 8.11 µM (inactive) | 17.3 µM (inactive) |  | 19.8 µM (inactive)
8 | O=C(O)[C@H]1[C@@H](C2CCCCC2)O[C@@H](C2CCCCC2)O[C@H]1C(F)(F)F | 22 µM (inactive) | 17.9 µM (inactive) | 19.4 µM (inactive) | 22.9 µM (inactive) | 32.7 µM (inactive) | 20 µM (inactive) |  | 21.3 µM (inactive) | 22.8 µM (inactive) | 17.1 µM (inactive) | 22.6 µM (inactive) | 60.1 µM (inactive) | 19.3 µM (inactive) | 19.1 µM (inactive) | 38.9 µM (inactive) | 20.7 µM (inactive) | 33.1 µM (inactive) | 28.6 µM (inactive) | 26.9 µM (inactive) | 17.6 µM (inactive)
9 | COc1ccc(/C=C2\CN(C)C/C(=C\c3ccc(OC)cc3)C2=O)cc1 |  | > 100 µM (inactive) | > 100 µM (inactive) | > 100 µM (inactive) |  | > 100 µM (inactive) |  | > 100 µM (inactive) | > 100 µM (inactive) | > 100 µM (inactive) | > 100 µM (inactive) | > 100 µM (inactive) | > 100 µM (inactive) | > 100 µM (inactive) |  | > 100 µM (inactive) | > 100 µM (inactive) | > 100 µM (inactive) | > 100 µM (inactive) | > 100 µM (inactive)
10 | COc1cc(C(=O)O[C@H]2CCC3CCC2N3C)cc(OC)c1OC (some centres not stated) | > 100 µM (inactive) | > 100 µM (inactive) | > 100 µM (inactive) | > 100 µM (inactive) | > 100 µM (inactive) | > 100 µM (inactive) | > 100 µM (inactive) | > 100 µM (inactive) | > 100 µM (inactive) | > 100 µM (inactive) | > 100 µM (inactive) | > 100 µM (inactive) | > 100 µM (inactive) | > 100 µM (inactive) | > 100 µM (inactive) | > 100 µM (inactive) | > 100 µM (inactive) | > 100 µM (inactive) | 63.7 µM (inactive) | 
11 | NC(=O)NC(CC(=O)O)C(=O)O (configuration not stated) | > 100 µM (inactive) | > 100 µM (inactive) | > 100 µM (inactive) | > 100 µM (inactive) | 93.3 µM (inactive) | > 100 µM (inactive) |  | > 100 µM (inactive) | > 100 µM (inactive) | > 100 µM (inactive) | > 100 µM (inactive) | > 100 µM (inactive) | > 100 µM (inactive) | > 100 µM (inactive) |  | > 100 µM (inactive) | > 100 µM (inactive) | > 100 µM (inactive) |  | > 100 µM (inactive)
12 | COC(=O)C1=C(O)C(C(=O)OC)[C@]2(O)[C@H](C(=O)OC)[C@H]1C[C@@H](c1ccc([N+](=O)[O-])cc1)[C@H]2C(=O)OC (some centres not stated) | 17.6 µM (inactive) | 15.7 µM (inactive) | 11 µM (inactive) | 14.7 µM (inactive) | 34.1 µM (inactive) |  |  | 13.2 µM (inactive) | 18 µM (inactive) | 18.1 µM (inactive) | 22.6 µM (inactive) | 74.1 µM (inactive) | 26.4 µM (inactive) | 28.5 µM (inactive) | 27.8 µM (inactive) |  | 10.2 µM (inactive) | 3.46 µM (inactive) | 14.3 µM (inactive) | 13.9 µM (inactive)
13 | O=C1C=C(O)C(=Cc2c(O)cc(O)cc2O)C(O)=C1 | > 100 µM (inactive) | > 100 µM (inactive) |  | > 100 µM (inactive) | > 100 µM (inactive) | > 100 µM (inactive) |  | > 100 µM (inactive) | > 100 µM (inactive) | > 100 µM (inactive) | > 100 µM (inactive) | > 100 µM (inactive) | > 100 µM (inactive) | > 100 µM (inactive) | > 100 µM (inactive) | > 100 µM (inactive) | > 100 µM (inactive) | > 100 µM (inactive) | > 100 µM (inactive) | 
14 | COC1=Nc2ccccc2S(=O)(=O)C=C1 | 4.35 µM (inactive) | 7.64 µM (inactive) | 11.4 µM (inactive) | 2.69 µM (inactive) | 7.69 µM (inactive) | 21.4 µM (inactive) | 2.61 µM (inactive) | 6.35 µM (inactive) | 0.342 µM (active) | 14.4 µM (inactive) | 9.89 µM (inactive) | 2.75 µM (inactive) | 19 µM (inactive) | > 45.4 µM (inactive) | 45.7 µM (inactive) |  |  | 2.5 µM (inactive) | 0.195 µM (active) | 15 µM (inactive)
15 | Clc1ccc(COC(Cn2ccnc2)c2ccc(Cl)cc2Cl)c(Cl)c1 (configuration not stated) [MICONAZOLE NITRATE] | 8.39 µM (inactive) | 10.6 µM (inactive) | 3.37 µM (inactive) |  | 11 µM (inactive) | 12.8 µM (inactive) | 14.7 µM (inactive) | 8.15 µM (inactive) | 5.82 µM (inactive) | 7.96 µM (inactive) |  |  | 12.6 µM (inactive) | 10.8 µM (inactive) | 14.3 µM (inactive) |  | 3.75 µM (inactive) | 12.5 µM (inactive) | 3.48 µM (inactive) | 5.7 µM (inactive)
16 | CCCCCCCCCc1cc(=O)c2c(O)cc(O)cc2o1 | 20.2 µM (inactive) | 18.1 µM (inactive) | 18.7 µM (inactive) | 15.1 µM (inactive) | 19.7 µM (inactive) | 21.1 µM (inactive) |  | 18.5 µM (inactive) | 24.3 µM (inactive) | 22.2 µM (inactive) | 19.1 µM (inactive) | 18.8 µM (inactive) | 22.6 µM (inactive) | 18.7 µM (inactive) | 17.1 µM (inactive) | 15.2 µM (inactive) | 10.2 µM (inactive) | 16.4 µM (inactive) | 14.3 µM (inactive) | 18 µM (inactive)
